Source: patent publication US20260041744A1, “Methods for Treating Pompe Disease” (Amicus Therapeutics, Inc., priority 2022, published 2026)
“Also recorded” adds a separate entry of the source.

What was measured:
[1] = test system: adults with Pompe disease; assay: Study ATB200-02 (20 mg/kg cipaglucosidase alfa IV + 260 mg miglustat): 6MWT (6MWD, % predicted 6MWD); type: in vivo, human;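 further: Open-label Phase I/II trial, ambulatory cohorts only, values are changes from baseline or counts relative to the baseline walk test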
Experimental: The change from baseline (CFBL) in 6MWD, % predicted sitting FVC, manual muscle test (MMT) and biomarkers—urine glucose tetrasaccharide (Hex4) and serum creatine kinase (CK)—were assessed at regular intervals.
The 4 cohorts in the study are as follows: • Cohort 1: ERT-experienced (2 to 6 years) ambulatory subjects (11 subjects) • Cohort 2: ERT-experienced (≥2 years) non-ambulatory subjects (6 subjects) • Cohort 3: ERT-naïve ambulatory subjects (6 subjects)· • Cohort 4: ERT-experienced (≥7 years) ambulatory subjects (6 subjects)
In Study ATB200-02, motor function was evaluated in all ambulatory subjects (ie, Cohorts 1, 3, and 4) (Table 23, FIGS. 46A-46D).

[2] = test system: Gaa KO mice; assay: Single fiber analysis (LAMP1/LC3 co-immunofluorescence, white gastrocnemius); type: in vivo, mouse; details: single fibers
Excerpt: FIG. 17 depicts co-immunofluorescent staining of LAMP1 (green) (see for example, “B”) and LC3 (red) (see, for example, “A”) in single fibers isolated from the white gastrocnemius of Gaa KO mice treated with a vehicle, alglucosidase alfa, or ATB200. “C” depicts clearance of autophagic debris and absence of enlarged lysosome. A minimum of 30 fibers were examined from each animal.
As a result, a significant portion of muscle fibers analyzed (36-60%) from ATB200-treated mice appeared normal or near-normal.

[3] = Cipaglucosidase alfa pharmacokinetics in ERT-experienced adult patients with LOPD; type: in vivo, human
[4] = biological target: ATB200 (Homo sapiens, UniProt P10253); assay: Thermostability assay using SYPRO Orange
[5] = test system: adults with Pompe disease; assay: Study ATB200-02: sitting % predicted FVC
Experimental: Four cohorts of patients with Pompe disease were enrolled in the ATB200-02 study: • Cohort 1: ERT-experienced, aged 18-65 years, with 2-6 years prior ERT with 20 mg/kg alglucosidase alfa every 2 weeks (n=11) • Cohort 2: Non-ambulatory ERT-experienced, aged 18-65 years, with ≥2 years prior ERT with 20 mg/kg alglucosidase alfa every 2 weeks (n=6)· • Cohort 3: ERT-naïve, aged 18-65 years (n=6). • Cohort 4: ERT-experienced, aged 18-75 years, with ≥7 years prior ERT with 20 mg/kg alglucosidase alfa every 2 weeks (n=6)
The change from baseline (CFBL) in 6MWD, % predicted sitting FVC, manual muscle test (MMT) and biomarkers—urine glucose tetrasaccharide (Hex4) and serum creatine kinase (CK)—were assessed at regular intervals. Data with up to 36 months of follow-up in ERT-experienced and ERT-naïve patients is provided herein. […] Due to the staggered timing of patient enrollment, the number of patients with data currently available decreases at later time-points in this ongoing study.

[6] = test system: adult subjects with LOPD; assay: Study ATB200-07 (OLE of PROPEL): 6MWD and % predicted 6MWD; type: in vivo, human; details: Study ATB200-03/07, excluding the outlier
Excerpt: (§1) The study doses and schedule are maintained from Study ATB200-03.
(§2) Efficacy data are presented in this summary as change from the baseline of Study ATB200-03 (OLE-ES Population).

[7] = test system: adult subjects with LOPD; assay: Study ATB200-07 (OLE): sitting % predicted FVC; type: in vivo, human; details: Study ATB200-03/07, excluding the outlier
Excerpt: as §1, §2

[8] = test system: 4MU-a-Glucoside hydrolysis (GAA activity); assay: GAA enzyme activity by 4MU-a-Glucoside hydrolysis after PAP treatment; type: biochemical, human; details: PAP 18 hours
Experimental: Removal of phosphoesters mono- and bis-M6P was completed by the enzyme purple acid phosphatase (PAP). PAP hydrolyzes phosphate esters and anhydrides. […] Cipaglucosidase alfa was treated with PAP for 18 hours, and alglucosidase alfa in the same reaction conditions but without PAP addition was used as a mock-treated control. PAP treatment results in complete removal of the bis-M6P peak and nearly all of the mono-M6P peak from the cipaglucosidase alfa LC-FLD chromatogram. Additional peaks are clearly observed in the neutral high mannose glycan region resulting from the removal of phosphates from mono- and bis-phosphorylated high mannose glycans.

[9] = test system: normal and Pompe fibroblast cell lines; assay: Cellular uptake of rhGAA into fibroblasts (16-hr incubation, internalized GAA by 4MU-α-Glucoside hydrolysis); type: cell-based, human
Experimental: The relative cellular uptake of ATB200 and LUMIZYME® rhGAA were compared using normal and Pompe fibroblast cell lines. Comparisons involved 5-100 nM of ATB200 according to the disclosure with 10-500 nM conventional rhGAA product LUMIZYME®. After 16-hr incubation, external rhGAA was inactivated with TRIS base and cells were washed 3-times with PBS prior to harvest. Internalized GAA measured by 4MU-α-Glucoside hydrolysis and was graphed relative to total cellular protein and the results appear in FIGS. 11A-11C.
ATB200 was also shown to be efficiently internalized into cells. […] ATB200 saturates cellular receptors at about 20 nM, while about 250 nM of LUMIZYME® is needed to saturate cellular receptors.

[10] = test system: animals; details: in vivo
Excerpt: It is not known whether miglustat is secreted in breast milk. A risk to newborns/breastfed infants cannot be ruled out. The developmental and health benefits of breastfeeding should be considered, as well as the clinical need for the mother to receive co-administration therapy with cipaglucosidase alfa and miglustat, and any adverse reactions experienced by the breastfed child potentially related to the co-administration of cipaglucosidase alfa and miglustat or the underlying maternal condition. In some embodiments, breastfeeding is not allowed while taking cipaglucosidase alfa and miglustat. There are no clinical data on the effects of co-administration therapy of cipaglucosidase alfa and miglustat on fertility.

[11] = test system: Gaa KO mice; assay: Muscle fiber size (minimum Feret's diameter) in quadriceps, 12 biweekly injections; type: in vivo, mouse; details: 20 mg/kg, 12 biweekly bolus injections
Experimental: FIG. 78 is a graph showing the effect of long-term cipaglucosidase alfa administration (20 mg/kg, 12 biweekly bolus injections) versus alglucosidase alfa on muscle fiber size by mean minimum fiber diameter (FD) in Gaa KO mouse quadriceps.
Gaa mice, like patients with Pompe disease, show a decrease in muscle fiber size as a consequence of muscle atrophy.

[12] = biological target: T1, CIMPR (Homo sapiens, UniProt P11717); assay: CIMPR plate binding assay
Experimental: In addition to having a greater percentage of rhGAA that can bind to the CIMPR, it is important to understand the quality of that interaction. LUMIZYME® and ATB200 receptor binding was determined using a CIMPR plate binding assay. Briefly, CIMPR-coated plates were used to capture GAA. Varying concentrations of rhGAA were applied to the immobilized receptor and unbound rhGAA was washed off. The amount of remaining rhGAA was determined by GAA activity.
N-glycan analysis via MALDI-TOF mass spectrometry confirmed that on average each ATB200 molecule contains at least one natural bis-M6P N-glycan structure.

[13] = human, in vivo
Excerpt: Blood sampling for plasma GAA protein and miglustat concentrations were taken for cohort 1 (ERT-experienced) and cohort 3 (ERT-naïve) only. To prevent any undue burden on patients, blood sampling for PK was not performed for non-ambulatory patients (cohort 2) and, due to similarity to cohort 1, those in cohort 4.

[14] = test system: Pompe patient fibroblasts; assay: Cellular uptake into Pompe patient fibroblasts (20 nM rhGAA, 18-hr); type: cell-based, human
Experimental: The relative cellular uptake into Pompe patient fibroblasts of dephosphorylated cipaglucosidase alfa compared to mock-treated cipaglucosidase alfa and mock-treated alglucosidase alfa was assessed. Comparisons at a concentration of 20 nM of rhGAA was used to mimic the interstitial concentration of cipaglucosidase alfa that crosses into tissues, as shown in FIG. 77A. After an 18-hr incubation for enzyme uptake, cells were washed for 2 hours, harvested, lysed, and then processed for GAA activity and western blot analysis. Internalized GAA measured by 4MU-a-Glucoside hydrolysis and was graphed relative to total cellular protein and the results appear in FIG. 77B.
However, cell uptake of PAP-treated cipaglucosidase alfa is abolished.

[15] = biological target: T1, CIMPR; assay: CIMPR Overlay Assay (far-western blot); type: binding
Experimental: The CIMPR Overlay Assay is a variation on a far-western blot where proteins are separated on an SDS-PAGE, transferred to a nitrocellulose membrane, and incubated with purified CIMPR in the place of a primary antibody as in a conventional western blot. Binding of CIMPR to M6P-containing glycans on rhGAA proteins is then visualized by an anti-CIMPR antibody.

[16] = ERT-experienced, Study ATB200-02, Cohort 1 and 4 combined
[17] = ERT-naïve, Study ATB200-02, Cohort 3
[18] = 20 mg/kg in combination with Miglustat 260 mg
[19] = ERT-experienced, Study ATB200-02

T1 sequence (P11717 41-2491, species assumed): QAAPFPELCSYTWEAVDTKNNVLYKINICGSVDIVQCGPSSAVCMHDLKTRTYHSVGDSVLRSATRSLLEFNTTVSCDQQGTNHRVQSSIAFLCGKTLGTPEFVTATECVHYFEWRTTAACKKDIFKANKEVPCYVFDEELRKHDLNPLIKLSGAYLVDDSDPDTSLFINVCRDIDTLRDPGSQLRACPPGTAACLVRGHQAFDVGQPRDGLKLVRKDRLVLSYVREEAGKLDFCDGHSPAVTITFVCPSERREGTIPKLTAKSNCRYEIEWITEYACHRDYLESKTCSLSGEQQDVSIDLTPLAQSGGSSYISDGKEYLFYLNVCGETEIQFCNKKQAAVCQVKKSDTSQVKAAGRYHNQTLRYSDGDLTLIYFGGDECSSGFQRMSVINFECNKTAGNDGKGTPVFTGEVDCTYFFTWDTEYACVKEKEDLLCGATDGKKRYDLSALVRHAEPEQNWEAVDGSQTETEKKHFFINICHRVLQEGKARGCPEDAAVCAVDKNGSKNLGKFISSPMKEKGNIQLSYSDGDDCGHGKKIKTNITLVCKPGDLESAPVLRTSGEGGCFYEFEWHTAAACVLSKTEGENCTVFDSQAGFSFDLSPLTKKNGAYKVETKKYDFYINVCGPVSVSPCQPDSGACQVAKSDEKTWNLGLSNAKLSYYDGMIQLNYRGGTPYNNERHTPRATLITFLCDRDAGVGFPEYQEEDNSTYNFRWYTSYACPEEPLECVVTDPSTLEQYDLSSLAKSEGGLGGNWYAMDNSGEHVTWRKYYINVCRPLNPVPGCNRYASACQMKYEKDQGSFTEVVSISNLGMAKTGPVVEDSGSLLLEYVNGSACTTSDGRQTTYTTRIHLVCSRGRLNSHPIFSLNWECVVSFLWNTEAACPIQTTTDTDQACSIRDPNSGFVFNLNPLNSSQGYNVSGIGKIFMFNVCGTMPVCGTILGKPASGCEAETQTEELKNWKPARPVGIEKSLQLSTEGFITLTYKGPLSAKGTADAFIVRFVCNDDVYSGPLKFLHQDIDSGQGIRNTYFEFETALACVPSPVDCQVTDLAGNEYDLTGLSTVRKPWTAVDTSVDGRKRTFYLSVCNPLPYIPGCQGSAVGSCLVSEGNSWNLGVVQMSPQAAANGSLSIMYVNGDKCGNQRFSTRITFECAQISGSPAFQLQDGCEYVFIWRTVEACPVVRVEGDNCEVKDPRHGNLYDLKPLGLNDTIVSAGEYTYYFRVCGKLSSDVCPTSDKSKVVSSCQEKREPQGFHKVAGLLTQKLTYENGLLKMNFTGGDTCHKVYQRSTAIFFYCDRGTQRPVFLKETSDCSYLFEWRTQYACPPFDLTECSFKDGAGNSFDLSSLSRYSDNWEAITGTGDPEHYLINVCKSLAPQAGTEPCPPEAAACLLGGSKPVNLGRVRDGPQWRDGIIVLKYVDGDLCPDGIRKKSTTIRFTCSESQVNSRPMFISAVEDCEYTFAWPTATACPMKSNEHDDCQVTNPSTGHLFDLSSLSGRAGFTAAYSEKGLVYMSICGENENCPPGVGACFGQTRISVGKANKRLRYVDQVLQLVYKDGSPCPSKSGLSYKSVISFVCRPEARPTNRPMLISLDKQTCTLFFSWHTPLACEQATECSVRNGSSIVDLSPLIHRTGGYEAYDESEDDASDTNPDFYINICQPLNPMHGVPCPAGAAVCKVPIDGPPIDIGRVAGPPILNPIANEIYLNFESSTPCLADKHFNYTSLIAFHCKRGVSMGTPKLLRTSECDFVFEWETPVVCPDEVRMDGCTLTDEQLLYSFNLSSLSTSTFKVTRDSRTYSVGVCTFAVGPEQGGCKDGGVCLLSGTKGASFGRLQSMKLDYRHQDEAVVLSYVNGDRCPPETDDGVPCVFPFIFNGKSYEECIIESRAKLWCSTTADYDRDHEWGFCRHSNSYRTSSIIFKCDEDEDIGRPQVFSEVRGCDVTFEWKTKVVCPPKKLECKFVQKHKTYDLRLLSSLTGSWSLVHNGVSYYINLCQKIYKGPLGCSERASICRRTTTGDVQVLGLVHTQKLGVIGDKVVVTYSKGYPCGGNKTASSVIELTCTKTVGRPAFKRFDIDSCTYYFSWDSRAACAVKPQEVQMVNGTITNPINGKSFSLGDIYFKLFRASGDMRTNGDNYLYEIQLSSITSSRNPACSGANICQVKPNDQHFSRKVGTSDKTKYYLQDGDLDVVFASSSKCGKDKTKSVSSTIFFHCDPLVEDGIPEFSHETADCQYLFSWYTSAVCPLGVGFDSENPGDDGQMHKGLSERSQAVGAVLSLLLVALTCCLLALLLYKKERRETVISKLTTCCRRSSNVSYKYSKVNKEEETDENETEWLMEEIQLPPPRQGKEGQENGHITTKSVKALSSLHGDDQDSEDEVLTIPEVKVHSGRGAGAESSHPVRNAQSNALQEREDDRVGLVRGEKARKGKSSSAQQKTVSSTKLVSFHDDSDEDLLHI

For “ATB200: recombinant human acid α-glucosidase with a high content of N-glycans bearing mono-M6P and bis-M6P, produced from GA-ATB200 CHO cell line”, the “6MWD Baseline, Mean” value [1, 16] was 393.5, the “6MWD CFBL M12 (W 52) Mean” value [1, 16] was 33.5 and the “6MWD CFBL M24 (W 104) Mean” value [1, 16] was 25.2. The “6MWD Baseline, Mean” value [1, 17] was 396.0, the “6MWD CFBL M12 (W 52) Mean” value [1, 17] was 57.0 and the “6MWD CFBL M24 (W 104) Mean” value [1, 17] was 54.4. For the same substance, the “Fibers with Normal or Near-normal Appearance” value [2] was 36-60%, the “Lysosome Enlargement” value [2] was “dramatically decreased lysosome size; also recorded: Dramatic size” and the “AUC0-inf, mean” value [3, 18] was 1812 µg·h/mL. The “Cmax, mean” value [3, 18] was 345 µg/mL, the “AUC0-inf, mean” value ([3]; 20 mg/kg without Miglustat) was 1410 µg·h/mL and the “Cmax, mean” value ([3]; 20 mg/kg without Miglustat) was 325 µg/mL. The Tm ([4]; pH 5.2) was 67.3 °C, the Tm ([4]; pH 7.4) was 56.2 °C and the Tm ([4]; pH 7.4 + 10 μM miglustat) was 61.6 °C. The Tm ([4]; pH 7.4 + 30 μM miglustat) was 62.9 °C, the Tm ([4]; pH 7.4 + 100 μM miglustat) was 66.0 °C and the “% Predicted FVC Baseline Mean” value [5, 19] was 57.4 % predicted. For the same substance, the “% Predicted FVC CFBL M12 (W 52) Mean” value [5, 19] was −1.2 % predicted, the “% Predicted FVC CFBL M24 (W 104) Mean” value [5, 19] was 1.0 % predicted and the “% Predicted FVC Baseline Mean” value [5, 17] was 57.2 % predicted. For the same substance, the “% Predicted FVC CFBL M12 (W 52) Mean” value [5, 17] was 3.2 % predicted, the “% Predicted FVC CFBL M24 (W 104) Mean” value [5, 17] was 4.7 % predicted and the “6MWD Baseline, Mean” value ([6]; ERT-experienced) was 342.4. The “6MWD CFBL M12 (W 52) Mean” value ([6]; ERT-experienced) was 16.3, the “6MWD CFBL M24 (W 104) Mean” value ([6]; ERT-experienced) was 14.2 and the “6MWD Baseline, Mean” value ([6]; ERT-naïve) was 393.6. The “6MWD CFBL M12 (W 52) Mean” value ([6]; ERT-naïve) was 33.4, the “6MWD CFBL M24 (W 104) Mean” value ([6]; ERT-naïve) was 38.8 and the “% Predicted FVC Baseline Mean” value ([7]; ERT-experienced) was 67.7 % predicted. The “% Predicted FVC CFBL M12 (W 52) Mean” value ([7]; ERT-experienced) was 0.1 % predicted, the “% Predicted FVC CFBL M24 (W 104) Mean” value ([7]; ERT-experienced) was −0.6 % predicted and the “% Predicted FVC Baseline Mean” value ([7]; ERT-naïve) was 80.2 % predicted. The “% Predicted FVC CFBL M12 (W 52) Mean” value ([7]; ERT-naïve) was −4.7 % predicted, the “% Predicted FVC CFBL M24 (W 104) Mean” value ([7]; ERT-naïve) was −4.8 % predicted and the “enzyme activity after PAP treatment” value [8] was “retaining the enzyme activity”. The “uptake efficiency constant (Kuptake)” value ([9]; extrapolated from uptake curves) was 2-3 nm, the “internalization into fibroblasts” value ([9]; normal and Pompe fibroblast cells) was “internalized to a greater degree than the conventional rhGAA product LUMIZYME®” and the “rhGAA concentration that saturates cellular receptors” value ([9]; normal and Pompe fibroblasts) was “about 20 nM”. The “excretion in milk” value [10] was “excretion of cipaglucosidase alfa in milk”, the “fertility, preclinical data” value [10] was “did not reveal any significant adverse reactions” and the “muscle fiber size vs alglucosidase alfa” value [11] was “significantly improved muscle fiber size”. The “CIMPR binding compared with LUMIZYME” value ([12]; CIMPR-coated plates) was “bound to CIMPR significantly better than LUMIZYME®”, the Kd ([12]; M6P receptor plate binding assays) was 2 to 4 nM and the “median time of peak signature peptide T09 concentrations (tmax)” value [13] was “approximately 4 hours”. For the same substance, the “cellular uptake into Pompe fibroblasts” value [14] was “better cellular uptake compared to alfaglucosidase alfa” and the “CIMPR binding in overlay assay” value [15] was “binds with high affinity to CIMPR as shown by an intense band”.
